{"source": "patent US12415807B2", "about": "“PKC inhibitor solid state forms” (MingSight Pharmaceuticals, Inc., priority 2017, dated 2025)", "key": {"[1]": {"test_system": "Interleukin-8 release", "test": "Interleukin-8 release", "assay_type": "cell-based", "source_text": "(§1) The methods for these determinations have been described (Grant, et al. 2010, Eur. J. Pharmacol. 627:16-25)."}, "[2]": {"test_system": "pSHP2 (PKCβ cell assay)", "test": "pSHP2 (PKCβ cell assay)", "assay_type": "cell-based", "source_text": "as §1"}, "[3]": {"target": "Human PKC delta (Homo sapiens, UniProt Q05655)", "sequence (Q05655 whole entry)": "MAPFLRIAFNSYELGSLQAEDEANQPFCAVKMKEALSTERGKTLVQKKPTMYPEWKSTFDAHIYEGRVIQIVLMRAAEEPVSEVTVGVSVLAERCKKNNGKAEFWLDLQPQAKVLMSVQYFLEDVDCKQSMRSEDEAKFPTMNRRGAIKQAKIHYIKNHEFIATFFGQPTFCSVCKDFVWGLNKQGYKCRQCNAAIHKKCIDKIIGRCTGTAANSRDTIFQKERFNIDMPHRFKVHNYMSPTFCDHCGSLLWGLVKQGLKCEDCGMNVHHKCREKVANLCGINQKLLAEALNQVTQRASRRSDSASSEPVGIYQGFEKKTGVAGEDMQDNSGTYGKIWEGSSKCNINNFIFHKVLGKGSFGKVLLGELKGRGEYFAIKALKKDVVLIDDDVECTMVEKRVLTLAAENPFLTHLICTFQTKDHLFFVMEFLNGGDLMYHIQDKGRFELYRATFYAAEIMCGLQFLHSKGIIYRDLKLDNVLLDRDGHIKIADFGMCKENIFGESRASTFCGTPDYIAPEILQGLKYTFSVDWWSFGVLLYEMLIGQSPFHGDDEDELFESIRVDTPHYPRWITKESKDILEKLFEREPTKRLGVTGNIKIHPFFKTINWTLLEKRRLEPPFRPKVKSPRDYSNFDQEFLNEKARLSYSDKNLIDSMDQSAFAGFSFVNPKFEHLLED", "test": "In vitro PKC inhibition, PKC delta", "assay_type": "biochemical", "source_text": "as §1"}}, "data": [{"smiles": "Cc1ncc(F)c(Nc2n[nH]c3c2CN(C(=O)N2C[C@@H](C)N(CC4CCOCC4)C[C@@H]2C)C3(C)C)n1", "note": "[Compound 1, 5-{[(2S,5R)-2,5-dimethyl-4-(tetrahydro-2H-pyran-4-ylmethyl)piperazin-1-yl]carbonyl}-N-(5-fluoro-2-methylpyrimidin-4-yl)-6,6-dimethyl-1,4,5,6-tetrahydropyrrolo[3,4-c]pyrazol-3-amine]", "values": [{"measurement": "IC50", "setting": "[1]", "value": 39, "unit": "nM"}, {"measurement": "IC50", "setting": "[2]", "value": 9.8, "unit": "nM"}, {"measurement": "Inhibition of PKC delta (in words)", "setting": "[3]", "value": "does not significantly inhibit"}]}]}
